# Experimental data from PubChem BioAssay (NCI).
#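 The compound was tested at five concentrations on cells cultured in 96-well plates, with a 48-hour exposure period. Abbreviation: GI50, concentration required for 50% inhibition of growth. TGI denotes the concentration required for complete inhibition of growth.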
# Legend:
# Assay in all cases: NCI-60 cell line screen, 48 h
# [1] = system: 786-0 renal
# [2] = system: A498 renal
# [3] = system: HCT-15 colon
# [4] = system: HOP-62 NSCLC
# [5] = system: LOX IMVI melanoma
# [6] = system: NCI-H460 lung
# [7] = system: SK-MEL-2 melanoma
# [8] = system: SK-MEL-28 melanoma
# [9] = system: UACC-257 melanoma
Compound,GI50 [1] [µM],TGI [1] [µM],GI50 [2] [µM],TGI [2] [µM],GI50 [3] [µM],TGI [3] [µM],GI50 [4] [µM],TGI [4] [µM],GI50 [5] [µM],TGI [5] [µM],GI50 [6] [µM],TGI [6] [µM],GI50 [7] [µM],TGI [7] [µM],GI50 [8] [µM],TGI [8] [µM],GI50 [9] [µM],TGI [9] [µM]
COc1cc(-n2ccnc2)cc(OC)c1OC,39.1,> 100,35.8,> 100,40,> 100,31.9,> 100,60.3,> 100,41.6,> 100,64.1,> 100,> 100,> 100,> 100,> 100
Cc1ccc(NCCN(C)C)c2c(=O)c3ccccc3sc12,1.58,3.54,1.14,2.52,2.21,6.53,1.55,3.11,1.61,3.45,1.41,3.01,2,4.31,1.71,3.11,1.88,3.83
c1ccc(P(=C2c3ccccc3-c3ccccc32)(c2ccccc2)c2ccccc2)cc1,,34,,,,52.2,,8.17,,9.38,,19.2,,23.5,,20.2,,27.3
COc1ccc(N(/C=C/C(=O)C(F)(F)F)CC(=O)c2ccc(Cl)cc2)cc1,20.7,57.8,13.9,28.7,13,26.8,16.6,35.8,14.3,28.8,13.4,32.8,15.4,31.8,18.1,36.2,18.4,37.7
O=C(C/C(CCC(=O)N(Cc1ccccc1)Cc1ccccc1)=N/Nc1ccc([N+](=O)[O-])cc1[N+](=O)[O-])c1ccccc1,,> 100,,,,> 100,,> 100,,> 100,,> 100,,> 100,,> 100,,> 100
CC[N+](C)(CC)CC(C)(C)C(=O)/C=C/c1ccc(/C=C/C(=O)C(C)(C)C[N+](C)(CC)CC)cc1,,> 100,,> 100,,> 100,,> 100,,> 100,,> 100,,,,> 100,,> 100
CC(=O)c1cc(C(=O)c2ccc3c(c2)Sc2ccccc2N3)c2c(C)cccn12,0.488,7.29,0.141,1.9,0.294,> 100,0.25,36.9,0.595,4.61,0.213,4.76,0.3,> 66.2,2.51,> 100,2.39,> 100
Cc1nc2sccn2c1C(=O)NC(=O)Nc1ccc(Cl)cc1,,> 100,,> 100,,> 100,,> 100,,> 100,,> 100,,> 100,,> 100,,> 100
CC12CCC3c4cc(Br)c(O)c(Br)c4CCC3C1CCC2O (stereo not given),,42,,36.3,,,,,,63.6,,,,59.4,,34.9,,35.8
CCCCCCCCCCCCCC(=O)CSCCNC(=O)CCNC(=O)[C@@H](O)C(C)(C)COP(=O)(O)OP(=O)(O)OCC1OC(n2cnc3c(N)ncnc32)C(O)C1OP(=O)(O)O (stereo not given in full),,30.1,,35.5,,42.7,,32.6,,37.2,,79.7,,33.5,,34.3,,36.1
CNS(=O)(=O)OCC1OC(n2cnc3c(N)ncnc32)C(O)C1O (stereo not given),> 100,> 100,> 100,> 100,> 100,> 100,> 100,> 100,> 100,> 100,> 100,> 100,> 100,> 100,> 100,> 100,> 100,> 100
Nc1ccccc1C#C/C=C\C#Cc1c(F)c(F)c(F)c(F)c1F,12.3,30.5,25.5,55.8,15.1,30,12.7,27.8,2.68,14.6,24.4,> 100,26.3,88.9,17,38.4,17.9,38.6
COC(=O)/C=c1\s/c(=C\C(=O)OC)c2ccccc12,,> 100,,> 100,,> 100,,,,> 100,,,,> 100,,> 100,,> 100
Cc1c(C(N)=O)sc2c1c(=O)n(Cc1ccccc1)c1nnc(-c3ccc(Br)cc3)n21,2.09,5.73,2.3,12.7,0.705,17.9,1.38,14.4,1.27,10.2,0.813,6.55,5.73,18.7,4.09,17.1,3.14,11.8
CCCCCCCC(=O)OCC(=O)[C@]1(O)Cc2c(O)c3c(c(O)c2[C@@H](OC2CC(N)C(O)C(C)O2)C1)C(=O)c1c(OC)cccc1C3=O (stereo not given in full),0.0622,1.25,0.215,0.951,0.703,2.14,0.162,1.74,,,,0.196,,,0.199,0.902,,
O=C(c1ccccc1)n1c(-c2ccccc2)cs/c1=N\S(=O)(=O)c1ccc(N2N=C3c4ccccc4CC3C2c2cccs2)cc1 (stereo not given),21.8,96.7,,,61.4,> 100,23.7,57.1,30.7,> 100,> 100,> 100,> 100,> 100,> 100,> 100,45.7,> 100
C=C(C)C(=O)O[C@@H]1C/C(C)=C\[C@H](OC(C)=O)C[C@](C)(O)/C=C2/OC(=O)C(COC(C)=O)=C21,,6.03,,> 20.8,,0.786,,> 100,,0.373,,2.35,,14.1,,0.762,,3.62
C=CCOC(=O)C1CCC(=O)N1C(=O)C(Cl)Cl (stereo not given),,> 100,,> 100,,> 100,,> 100,,> 100,,> 100,,> 100,,> 100,,> 100
C[C@@H]1COCCN1c1cc(C2([S@@](C)(=N)=O)CC2)nc(-c2ccnc3[nH]ccc23)n1,2.7,26.8,0.716,4.2,10,> 100,3.74,63.6,2.14,14,3.09,> 69.8,5.61,44.9,9.76,> 88.9,14.6,> 100
NC(=Nc1ccc(N)cc1)C(N)=Nc1ccc(N)cc1,> 100,> 100,25.3,> 100,42.6,> 100,> 100,> 100,> 100,> 100,> 100,> 100,> 100,> 100,> 100,> 100,> 100,> 100
N#Cc1ccc2cc3c(cc2c1)OCO3,,> 100,,> 100,,> 100,,> 100,,> 100,,> 100,,> 100,,> 100,,
O=C(CC(=O)c1cccc(Cl)c1)c1cccc(Cl)c1,3.86,> 100,5.07,> 100,1.86,> 100,2.59,> 100,1.37,> 100,0.95,> 100,4.75,> 100,2.7,> 100,5.99,> 100
CN(/N=C/c1cccc2cccnc12)c1c([N+](=O)[O-])cc([N+](=O)[O-])cc1[N+](=O)[O-],,> 100,,> 100,,> 100,,> 100,,> 100,,> 100,,> 100,,> 100,,> 100
Cc1cn(-c2ccc(S(C)(=O)=O)cc2)c(-c2ccc(Cl)cc2)n1,> 100,> 100,> 100,> 100,> 100,> 100,> 100,> 100,> 100,> 100,> 100,> 100,> 100,> 100,> 100,> 100,> 100,> 100
